Measured values published in paper PMC8011784, “Chronic peptide-based GIP receptor inhibition exhibits modest glucose metabolic changes in mice when administered either alone or combined with GLP-1 agonism” (PLoS ONE, 2021).
Starred links: 1 amine or outer side, 2 acyl side, 3 side chain; linkers in the order of their positions; H or OH if unused. Residues, ends and D or L forms follow the SMILES beside them. Groups on a side chain read outwards from the residue. No end group written: not given here. *: point of attachment. γGlu = O=C(O)[C@H](CCC(=O)[*:2])N[*:1]; Palmitoyl = CCCCCCCCCCCCCCCC(=O)*

What was measured:
[1] = target: T1, mouse GIP receptor (Mus musculus, UniProt Q0P543); experiment: Antagonist mode cAMP assay: inhibition of mouse GIP-induced cAMP production in CHO-K1 GIPR Gs cells; assay type: cell-based; details: curve fit value in plot, unit from legend, read-out: IC50 (printed on plot, Fig 1A/1B)
T1 construct: host or cells: CHO-K1 (cAMP Hunter CHO-K1 GIPR Gs cell line)
T1 sequence (Q0P543 19-460): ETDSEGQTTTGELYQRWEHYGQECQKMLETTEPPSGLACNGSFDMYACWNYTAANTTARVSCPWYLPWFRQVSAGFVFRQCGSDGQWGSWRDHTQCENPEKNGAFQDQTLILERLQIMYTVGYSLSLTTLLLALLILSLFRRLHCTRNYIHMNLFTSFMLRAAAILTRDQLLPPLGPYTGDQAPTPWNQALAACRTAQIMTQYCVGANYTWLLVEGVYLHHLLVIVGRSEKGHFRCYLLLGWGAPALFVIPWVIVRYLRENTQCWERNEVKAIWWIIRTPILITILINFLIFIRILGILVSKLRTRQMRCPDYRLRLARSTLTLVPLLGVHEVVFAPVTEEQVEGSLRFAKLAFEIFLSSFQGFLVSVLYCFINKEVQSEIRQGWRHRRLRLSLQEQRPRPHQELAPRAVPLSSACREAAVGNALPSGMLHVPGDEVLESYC
Description: Each peptide was tested for its ability to activate or inhibit the mouse GIP receptor using the cAMP Hunter™ CHO-K1 GIPR Gs cell line, in combination with the Hit Hunter® cAMP XP+ assay for determining cAMP, according to the manufacturer’s instructions (Eurofins DiscoverX Corporation).
Fig 1 Effects of acute GIPR antagonism on glucose homeostasis and insulin secretion. GIPA-1 and GIPA-2 are antagonists of mouse GIPR. […] IC50 values (μM) are indicated on the plots. (C-J) Acute effects of GIPA-1 and GIPA-2 on glucose homeostasis and insulin secretion in lean mice. Oral glucose tolerance tests (C and E), the corresponding areas under the curve (AUC) (D and F) and insulin responses (I) following subcutaneous injections of vehicle, 1,5 and 10 mg/kg GIPA-1 (C and D) or vehicle, 1,5 and 10 mg/kg GIPA-2 (E and F) before an oral glucose administration (1.5 g/kg). […] Statistical analysis was calculated using two-way ANOVA with Tukey’s post-hoc test (C, E, G and J) and one-way ANOVA with Dunnett’s post-hoc test (D, F, H, I). *: p< 0.05, **: p < 0.01, ***: p < 0.001, ****: p<0.0001 compared to vehicle.
We began by characterising the receptor-interaction properties of GIPA-1 and GIPA-2. Their agonist and antagonist potencies were measured via a cAMP production assay in CHO-K1 cells overexpressing the mouse GIPR.

[2] = cited from earlier work
Source text: Given the strong in vitro pharmacological data and our interest in other metabolic parameters such as adiposity and insulin se ...

[3] = tested on: GIPR; details: cited from earlier work
Source text: Further controversy is evident with peptide based GIPR antagonists. […] In contrast, a palmitoyl variant of Pro^3GIP(3–30) ... || The GLP-1-agonist-GIPR-antagonist combination therapy reported in the present study was born from evidence of compromised gut-hormone function in obesity and diabetes as well as their postulated role in driving the beneficial metabolic effects following bariatric surgery. Indeed, GLP-1 secretion is enhanced after bariatric surgery which is thought to be a key component for the resolution of diabetes. In contrast, the controversial role of the GIP signalling pathway in dysmetabolic states has led to the pursuit of both agonist and antagonist approaches. There is a compelling ...

[4] = tested on: GIP receptor; details: humans, co-infusion with GIP(3-30)NH2; cited from earlier work
Source text: (§1) It has been shown that rat and the human GIP(3-30)NH2 are effective antagonists in vivo [48, 49], so we would expect the mouse GIP(3-30)NH2 to behave in a similar manner. […] In humans GIP-induced insulin secretion was reduced by 82% during co-infusion with GIP(3-30)NH2 [48].

[5] = tested on: lean male C57BL/6JRj mice; experiment: Acute intraperitoneal glucose tolerance test (IPGTT) with GIPA-2 and mouse GIP in lean mice; assay type: in vivo; details: n = 8; for plasma insulin: 0.1 mg/kg mouse GIP SC
Description: The effects of GIPA-2 and mouse GIP alone or in combination were studied in 10-week old lean male C57BL/6JRj mice. Animals were fasted 4 hours prior to an intraperitoneal glucose bolus (1.5 g/kg). Sixty minutes prior to glucose load animals received subcutaneous injection of 5mg/kg GIPA-2, while animals receiving mouse GIP (0.1 mg/kg) were dosed subcutaneously 15 minutes prior to glucose load. Blood glucose was measured just before the administration of GIPA-2 and at 0, 15, 30 60, 120, 180 and 240 min. Plasma insulin was measured at 0, 15 and 240 min.
Fig 1 Effects of acute GIPR antagonism on glucose homeostasis and insulin secretion. GIPA-1 and GIPA-2 are antagonists of mouse GIPR. […] IC50 values (μM) are indicated on the plots. (C-J) Acute effects of GIPA-1 and GIPA-2 on glucose homeostasis and insulin secretion in lean mice. Oral glucose tolerance tests (C and E), the corresponding areas under the curve (AUC) (D and F) and insulin responses (I) following subcutaneous injections of vehicle, 1,5 and 10 mg/kg GIPA-1 (C and D) or vehicle, 1,5 and 10 mg/kg GIPA-2 (E and F) before an oral glucose administration (1.5 g/kg). (G, H and J) Acute effect of GIPA-2 alone or in combination with mouse GIP on glucose homeostasis and insulin secretion in lean mice. Intraperitoneal glucose tolerance test cute IPGTT (G), the corresponding AUC (H) and insulin response (J) following subcutaneous injections of vehicle, 0.1 mg/kg mouse GIP, 5mg/kg GIPA-2, and combination of both. Group sizes are n = 8, and data are represented as mean ± SEM. Statistical analysis was calculated using two-way ANOVA with Tukey’s post-hoc test (C, E, G and J) and one-way ANOVA with Dunnett’s post-hoc test (D, F, H, I). *: p< 0.05, **: p < 0.01, ***: p < 0.001, ****: p<0.0001 compared to vehicle.

[6] = tested on: rats; details: 25 nmol/kg b.w. for 3 weeks, cited from earlier work
Source text: as §1, with “Further controversy is evident with peptide based GIPR antagonists. […] In contrast, a palmitoyl variant of Pro^3GIP(3–30) ... || It” for “It”

CC[C@H](C)[C@H](NC(=O)[C@H](CO)NC(=O)[C@H](Cc1ccc(O)cc1)NC(=O)[C@H](CC(=O)O)NC(=O)[C@H](CO)NC(=O)[C@@H](NC(=O)[C@H](Cc1ccccc1)NC(=O)[C@@H](NC(=O)CNC(=O)[C@@H](N)CCC(=O)O)[C@@H](C)O)[C@@H](C)CC)C(=O)N[C@@H](C)C(=O)N[C@@H](CCSC)C(=O)N[C@@H](CC(=O)O)C(=O)N[C@@H](CCCCN)C(=O)N[C@H](C(=O)N[C@@H](CCCNC(=N)N)C(=O)N[C@@H](CCC(N)=O)C(=O)N[C@@H](CCC(N)=O)C(=O)N[C@@H](CC(=O)O)C(=O)N[C@@H](Cc1ccccc1)C(=O)N[C@H](C(=O)N[C@@H](CC(N)=O)C(=O)N[C@@H](Cc1c[nH]c2ccccc12)C(=O)N[C@@H](CC(C)C)C(=O)N[C@@H](CC(C)C)C(=O)N[C@@H](C)C(=O)N[C@@H](CCC(N)=O)C(=O)N[C@@H](CCCNC(=N)N)C(N)=O)C(C)C)[C@@H](C)CC [GIPA-1, mouse GIP(3–30)NH2]
IC50 [1]: 483 nM

CCCCCCCCCCCCCCCC(=O)N[C@@H](CCC(=O)N[C@@H](CCC(=O)NCCCC[C@H](NC(=O)[C@H](CC(=O)O)NC(=O)[C@H](CO)NC(=O)[C@@H](NC(=O)[C@H](Cc1ccccc1)NC(=O)[C@@H](NC(C)=O)[C@@H](C)O)[C@@H](C)CC)C(=O)N[C@@H](CO)C(=O)N[C@H](C(=O)N[C@@H](C)C(=O)N[C@@H](CCSC)C(=O)N[C@@H](CC(=O)O)C(=O)N[C@@H](CCCCN)C(=O)N[C@H](C(=O)N[C@@H](CCCNC(=N)N)C(=O)N[C@@H](CCC(N)=O)C(=O)N[C@@H](CCC(N)=O)C(=O)N[C@@H](CC(=O)O)C(=O)N[C@@H](Cc1ccccc1)C(=O)N[C@H](C(=O)N[C@@H](CC(N)=O)C(=O)N[C@@H](Cc1c[nH]c2ccccc12)C(=O)N[C@@H](CC(C)C)C(=O)N[C@@H](CC(C)C)C(=O)N[C@@H](C)C(=O)N[C@@H](CCC(N)=O)C(=O)N[C@@H](CCCCN)C(=O)NCC(=O)N[C@@H](CCCCN)C(=O)N[C@@H](CCCCN)C(=O)N[C@@H](CC(N)=O)C(=O)N[C@@H](CC(=O)O)C(=O)N[C@@H](Cc1c[nH]c2ccccc12)C(=O)N[C@@H](CCCCN)C(=O)N[C@@H](Cc1c[nH]cn1)C(=O)N[C@@H](CC(N)=O)C(=O)N[C@H](C(=O)N[C@H](C(=O)N[C@@H](CCC(N)=O)C(=O)O)[C@@H](C)O)[C@@H](C)CC)C(C)C)[C@@H](C)CC)[C@@H](C)CC)C(=O)O)C(=O)O [GIPA-2, N^αAc-K10[γEγE-C16]-Arg18-hGIP(5–42)] (Ac-TFISDK([γGlu-γGlu-Palmitoyl])SIAMDKIRQQDFVNWLLAQKGKKNDWKHNITQ-OH)
plasma half-life and in vivo duration of action [2]: extended plasma half-life
IC50 [1]: 2.97 nM

(Pro3)-GIP: GIPR antagonist subsequently found to also possess partial agonist properties (YAPGTFISDYSIAMDKIHQQDFVNWLLAQKGKKNDWKHNITQ; Gastric inhibitory polypeptide; UniProt P09681 52-93, looked up, variant E3P)
GIPR agonist/antagonist character [3]: originally characterized as an antagonist but was subsequently found to also possess partial agonist properties

GIP(3–30)NH2: N-terminally truncated form of GIP, potent peptide-based antagonist; species not stated (EGTFISDYSIAMDKIHQQDFVNWLLAQK-NH2; UniProt P09681 54-81, looked up, fragment)
GIPR antagonist potency [3]: potent peptide-based antagonist

human GIP(3-30)NH2: the human peptide sequence of GIP(3-30)NH2 (EGTFISDYSIAMDKIHQQDFVNWLLAQK-NH2; UniProt P09681 54-81, looked up, fragment)
plasma elimination half-life ([2]; human peptide sequence, in humans): 7.7 ± 1.4 min
reduction of GIP-induced insulin secretion [4]: 82%

mouse GIP: Mouse GIP was sourced from Phoenix Pharmaceuticals (YAEGTFISDYSIAMDKIRQQDFVNWLLAQRGKKSDWKHNITQ; Gastric inhibitory polypeptide; UniProt P48756 44-85, looked up)
glucose tolerance (IPGTT) ([5]; 5 mg/kg GIPA-2 SC 60 min and/or 0.1 mg/kg mouse GIP SC 15 min before ip glucose 1.5 g/kg): significantly improved glucose tolerance
plasma insulin ([5]; 15 and 240 min timepoints): This effect was not observed
plasma insulin ([5]; 15 minutes after mouse GIP, just prior to glucose bolus (0 min), 5 mg/kg GIPA-2 SC): robust increase in plasma insulin

rat GIP(3–30)NH2: GIPR antagonist, rat GIP(3–30)NH2
body weight, fat mass, triglycerides, LPL, leptin ([6]; sub-chronic dosing, rats fed normal chow): significantly increased body weight, body fat mass, triglycerides, LPL, and leptin levels
food intake or bone resorption ([6]; subchronic treatment): did not modify food intake or bone resorption
